Experimental data: patent US20170184695A1, “IMAGING OF CREATINE KINASE ENZYME EXPRESSION IN CANCEROUS TISSUES” (Sidra Medical and Research Center, priority 2014, published 2017)

Tested on: CK enzyme expressed in the tumor
Experiment: In vivo CEST imaging of creatine kinase expression in tumor after tail vein injection of PCr
Settings: 60 minutes post infusion (tail vein injection of PCr) vs base line CEST map, FIG. 3
Protocol: In certain embodiments, the radio frequency (RF) pulse can be provided at different frequency offsets. In certain embodiments, to detect the conversion of phosphocreatine to creatine, an RF pulse was applied at a frequency offset of about 1.8 ppm for a period of about 1 to about 3 seconds.
“b” is the base line CEST map from the same slice. “c” is a CEST map of the same slice at 60 minutes following tail vein injection of PCr.

## CN(CC(=O)O)C(=N)NP(=O)(O)O [PCr, phosphocreatine]
  increase in CEST contrast: about 11%
